Measurements reported in patent US6031073A, “Cyclic polypeptides comprising a thioether linkage and methods for their preparation” (La Jolla Pharmaceutical Company, priority 1997, dated 2000).
Numbered stars: 1 amine (or outer) side, 2 acyl side, 3 side chain; on linkers, the order of the positions; unused ones are H or OH. Bridge positions count the residues as written; N and C are the ends. Square brackets hold non-standard residues; d marks the D form. Peptide text beside a SMILES is read from it. Abu(4-yl) = O=C([C@H](CC[*:3])N[*:1])[*:2]; hCys = N[C@@H](CCS)C(=O)O

Tests used:
[1] = target: anticardiolipin antibody (serum of patient ACA-6701); assay: competitive ELISA, binding of patient ACA-6701 serum to cardiolipin/β2-GPI coated plate; conditions: amount of peptide that inhibited the human serum's binding by 50%; serum of patient ACA-6701 (GPL score 102)
Method: (§1) The binding affinities of a number of the thioether cyclic polypeptides of the present invention to anticardiolipin antibody were determined by a competitive ELISA (i.e., enzyme-linked immunosorbent assay) and compared with binding affinities of the corresponding disulfide cyclic polypeptides (e.g., 3G3, 2G3, and G3).
(§2) Of 96 wells of a flat-bottom Immulon I microtiter plate (Dynatech Labs, Alexandria, Va.), 94 wells were coated with […] cardiolipin per well in 30 mL, of ethanol. The remaining two wells were used as controls and each received 30 mL, of ethanol. After overnight evaporation at 4° C., the plate was blocked for 2 hours at room temperature with 200 mL of 5% (w/v) fish gelatin in phosphate buffered saline (i.e., PBS, 0.15 M NaCl and 0.01 M Na2 HPO4 at pH 7.2). The plate was washed five times in Tris buffered saline (i.e., TBS, 0.15 M NaCl and 0.05 M Tris-HCl at pH 8.5). Then, β2 -glycoprotein I (i.e., β2 -GPI) was added as […] of 2.3% (v/v) IgG-depleted human serum (Sigma Chemical Co.) and incubated for 2 hours at room temperature.
(§3) During this incubation, peptide solutions (around 2 mg/mL) were prepared by dissolving thioether cyclic peptides in 3% fish gelatin in TBS. The serums of patient ACA-6501, who has a GPL (i.e., IgG Phospholipid) score of 1500, and patient ACA-6701, who has a GPL score of 102, were diluted about 40-fold in 3% fish gelatin in TBS-PBS (1:1). Variable amounts of each of peptides were combined with 22 mL of each of the diluted human serums and then made up to the final volume of 220 mL with 3% fish gelatin in TBS-PBS (1:1). For each peptide, at least four peptide concentrations were employed and each data point was determined in duplicate.
(§4) After 5 washes with TFBS, 100 mL of the peptide/human serum solution was added and the microplate was agitated at 40 rpm in an orbital shaker (American Scientific, Rotator V) for one hour at room temperature. The plate was washed extensively with TBS (5 times) and 100 mL of diluted (1/1000) alkaline phosphatase-conjugated goat anti-human IgG (Zymed, South San Francisco, Calif.) in 0.5% (w/v) BSA-TBS was added to each well (i.e., bovine serum albumin, BSA). The plate was then incubated for one hour at room temperature followed by addition of […]/well of PPMP solution (3 g/L phenolphthalein monophosphate plus 26.7 g/L 2-amino-2-methyl-1-propanol in water). The plate was allowed to develop at room temperature for 21 min and the reaction was stopped by adding 50 mL of 0.2 M Na2 HPO4 (Mallinckrodt) to each well. Blanks consisted of protein-coated wells that received similar treatment except human serum was not added to these wells. The plate was read at 550 nm using a microplate reader (Bio-Tek Instruments, Model EL 311).
(§5) Absorbance vs. amount of peptide added was plotted using Graph Pad Prism (Graph Pad Software, Inc.). The amount of peptide that inhibited the human serum's binding by 50%, known as IC50, was calculated from the graph at the intersection of half-maximal absorbance with amount of peptide added.

[2] = target: anticardiolipin antibody (serum of patient ACA-6501); assay: competitive ELISA, binding of patient ACA-6501 serum to cardiolipin/β2-GPI coated plate; set-up: species or system human; conditions: for IC50: amount of peptide that inhibited the human serum's binding by 50%, serum of patient ACA-6501 (GPL score 1500)
Method: as §1, §2, §3, §4, §5

Row | Compound | IC50 [1] [µM] | IC50 [2] [µM] | biological activity in comparison with the corresponding disulfide cyclic peptide ([2]; general statement on Table 1 (sera ACA-6501 and ACA-6701)) | activity relative to disulfide peptide G3 ([2]; patient ACA-6501)
1 | CC(C)C[C@@H]1NC(=O)[C@H](CCCCN)NC(=O)CNC(=O)[C@H](CC(C)C)NC(=O)[C@H](C(C)C)NC(=O)CNC(=O)[C@H](CC(C)C)NC(=O)[C@H](NC(=O)[C@@H]2CCCN2C(=O)CN)CSCC[C@@H](C(=O)N2CCC[C@H]2C(=O)NCC(=O)O)NC1=O (single isomer, unassigned) [d-2G3-METE] | 436 | 100 |  | 
2 | CC(C)C[C@@H]1NC(=O)[C@@H](NC(=O)[C@@H]2CCCN2C(=O)CN)CSCC[C@@H](C(=O)N2CCC[C@H]2C(=O)NCC(=O)O)NC(=O)[C@H](CC(C)C)NC(=O)[C@H](CCCCN)NC(=O)CNC(=O)[C@H](CC(C)C)NC(=O)[C@H](C(C)C)NC(=O)CNC1=O (single isomer, unassigned) [l-2G3-METE] | 486 | 209 |  | 
3 | CC(C)C[C@@H]1NC(=O)C(NC(=O)[C@@H]2CCCN2C(=O)CN)CSC[C@@H](C(=O)N2CCC[C@H]2C(=O)NCC(=O)O)NC(=O)[C@H](CC(C)C)NC(=O)[C@H](CCCCN)NC(=O)CNC(=O)[C@H](CC(C)C)NC(=O)[C@H](C(C)C)NC(=O)CNC1=O (stereo partly drawn) [2G3-MMTE] | > 678 | > 678 |  | 
4 | CC(C)C[C@@H]1NC(=O)C(NC(=O)[C@@H]2CCCN2C(=O)CNC(=O)[C@H](C)N)CSC[C@@H](C(=O)N2CCC[C@H]2C(=O)NCC(=O)O)NC(=O)[C@H](CC(C)C)NC(=O)[C@H](CCCCN)NC(=O)CNC(=O)[C@H](CC(C)C)NC(=O)[C@H](C(C)C)NC(=O)CNC1=O (stereo partly drawn) [3G3-MMTE] | ~1050 | ~1050 |  | 
5 | CC(C)C[C@@H]1NC(=O)[C@H](CCCCN)NC(=O)CNC(=O)[C@H](CC(C)C)NC(=O)[C@H](C(C)C)NC(=O)CNC(=O)[C@H](CC(C)C)NC(=O)[C@@H](N)CCSCC[C@@H](C(N)=O)NC1=O [G3-EETE] (H-[hCys]LGVLGKL[Abu(4-yl)]-NH2; thioether 1-9) | 40 | 89 |  | 
6 | CC(C)C[C@@H]1NC(=O)[C@H](CCCCN)NC(=O)CNC(=O)[C@H](CC(C)C)NC(=O)[C@H](C(C)C)NC(=O)CNC(=O)[C@H](CC(C)C)NC(=O)[C@@H](N)CCSC[C@@H](C(N)=O)NC1=O [G3-EMTE] (H-[Abu(4-yl)]LGVLGKLC-NH2; thioether 1-9) | 34 | 52 | more active than the disulfide peptide G3 | about twice as active as G3
7 | CC(C)C[C@@H]1NC(=O)[C@H](CCCCN)NC(=O)CNC(=O)[C@H](CC(C)C)NC(=O)[C@H](C(C)C)NC(=O)CNC(=O)[C@H](CC(C)C)NC(=O)[C@@H](N)CSCC[C@@H](C(N)=O)NC1=O [G3-METE] (H-CLGVLGKL[Abu(4-yl)]-NH2; thioether 1-9) | 36 | 104 |  | 
8 | CC(C)C[C@@H]1NC(=O)C(N)CSC[C@@H](C(N)=O)NC(=O)[C@H](CC(C)C)NC(=O)[C@H](CCCCN)NC(=O)CNC(=O)[C@H](CC(C)C)NC(=O)[C@H](C(C)C)NC(=O)CNC1=O (stereo partly drawn) [G3-MMTE] | 57 | 126 |  | 
